From the supplement of paper PMC12137928 come the findings set out here.

In the assay the test system is HCT116. The settings on record: 72 h. The procedure, abridged: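 HCT116 cells were seeded at 250 per well in 1536-well plates and left 5 h to attach. CellTiter-Glo luminescence was scaled to vehicle (0%) and positive control (-100%), then pattern-corrected. IC50 and maximal efficacy came from four-parameter Hill fits.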

For `Cc1cc(N2CCN([C@@H]3CN[C@H](C(=O)N4CCSC4)C3)CC2)n(-c2ccccc2)n1` [Teneligliptin], the IC50 cell viability (ICRF193 0 nM) is greater than 45.8 µM and the IC50 cell viability (ICRF193 200 nM) is greater than 45.8 µM.
In the case of `Cc1nnc(C(C)C)n1C1C[C@H]2CC[C@@H](C1)N2CC[C@H](NC(=O)C1CCC(F)(F)CC1)c1ccccc1` (stereo in doubt) [Maraviroc], the IC50 cell viability is, setting by setting: (ICRF193 0 nM) greater than 45.8 µM; (ICRF193 200 nM) greater than 45.8 µM.
Consider `C[C@@H](O)[C@H](N)C(=O)O` [L-Threonine], for which the IC50 cell viability is greater than 45.8 µM (ICRF193 0 nM) and greater than 45.8 µM (ICRF193 200 nM).
For `CC(=O)Nc1c(I)c(NC(C)=O)c(I)c(C(=O)O)c1I` [Diatrizoic acid dihydrate], the IC50 cell viability was greater than 45.8 µM (ICRF193 0 nM) and greater than 45.8 µM (ICRF193 200 nM).
Compound `O=C(O)Cc1cccc(-c2cc(CCCCCCc3ccc(O[C@H]4O[C@H](CO)[C@@H](O)[C@H](O)[C@@H]4O)c(-c4cccc(CC(=O)O)c4)c3)ccc2O[C@H]2O[C@H](CO)[C@@H](O)[C@H](O)[C@@H]2O)c1` [Bimosiamose] had an IC50 cell viability (ICRF193 0 nM) greater than 45.8 µM and an IC50 cell viability (ICRF193 200 nM) greater than 45.8 µM.
With `CCC(=O)c1c(O)cc(O)cc1O` [Flopropione], the IC50 cell viability runs as follows: (ICRF193 0 nM) greater than 45.8 µM; (ICRF193 200 nM) greater than 45.8 µM.
Regarding `CCCCCCCCCCCCCCCCCC(=O)NCCCC[C@H](NC(=O)CC[C@@H](NC(=O)[C@H](C)NC(=O)[C@@H](C)O[C@H]1[C@H](O)[C@@H](CO)OC(O)[C@@H]1NC(C)=O)C(N)=O)C(=O)O` (some centres not stated) [ROMURTIDE], the IC50 cell viability runs as follows: (ICRF193 0 nM) greater than 45.8 µM; (ICRF193 200 nM) greater than 45.8 µM.
In turn, `Cc1ncc(C[n+]2csc(CCOP(=O)(O)OP(=O)(O)O)c2C)c(N)n1` [Thiamine pyrophosphate] had an IC50 cell viability (ICRF193 0 nM) greater than 45.8 µM and an IC50 cell viability (ICRF193 200 nM) greater than 45.8 µM.
On to `O=C1CCC(N2C(=O)c3ccccc3C2=O)C(=O)N1` (configuration not stated) [Thalidomide], for which the IC50 cell viability (ICRF193 0 nM) was greater than 45.8 µM and the IC50 cell viability (ICRF193 200 nM) is greater than 45.8 µM.
`Clc1ccc2c(c1)CCc1cccnc1C2=C1CCNCC1` [Desloratadine]: the IC50 cell viability is greater than 45.8 µM (ICRF193 0 nM) and greater than 45.8 µM (ICRF193 200 nM).
Take `O=C(c1ccccc1)C(O)c1ccccc1` (configuration not stated) [Benzoin]: the IC50 cell viability was greater than 45.8 µM (ICRF193 0 nM) and greater than 45.8 µM (ICRF193 200 nM).
As for `CCCCNC(=O)NS(=O)(=O)c1ccc(C)cc1` [Tolbutamide], the IC50 cell viability by setting is: (ICRF193 0 nM) greater than 45.8 µM; (ICRF193 200 nM) greater than 45.8 µM.
Turning to `CCC(O)c1ccccc1` (configuration not stated) [1-Phenyl-1-propanol], the IC50 cell viability is greater than 45.8 µM (ICRF193 0 nM) and greater than 45.8 µM (ICRF193 200 nM).
Take `O=C(O)CCC(=O)O` [Butanedioic acid]: the IC50 cell viability is, setting by setting: (ICRF193 0 nM) greater than 45.8 µM; (ICRF193 200 nM) greater than 45.8 µM.
Regarding `O=[N+]([O-])c1ccc(/C=N/O)o1` [Nifuroxime], the IC50 cell viability runs as follows: (ICRF193 0 nM) greater than 45.8 µM; (ICRF193 200 nM) greater than 45.8 µM.
With `CN1N=C2CCN(C(=O)[C@@H](COCc3ccccc3)NC(=O)C(C)(C)N)C[C@@]2(Cc2ccccc2)C1=O` [Capromorelin], the IC50 cell viability was greater than 45.8 µM (ICRF193 0 nM) and greater than 45.8 µM (ICRF193 200 nM).
As to `O=C([O-])C(O)[C@H](O)[C@@H](O)[C@H](O)[C@H](O)CO.O=C([O-])C(O)[C@H](O)[C@@H](O)[C@H](O)[C@H](O)CO.[Ca+2]` (some centres not stated) [CALCIUM GLUCEPTATE], the IC50 cell viability (ICRF193 0 nM) was greater than 45.8 µM and the IC50 cell viability (ICRF193 200 nM) is greater than 45.8 µM.
For the compound `Cc1cccc(C)c1N(CCCc1cccnc1)C(=O)C(C)N` (configuration not stated) [Ro 22-9194], the IC50 cell viability is greater than 45.8 µM (ICRF193 0 nM) and greater than 45.8 µM (ICRF193 200 nM).
As for `O=P1(NCCCl)OCCCN1CCCl` (configuration not stated) [Ifomide], the IC50 cell viability was greater than 45.8 µM (ICRF193 0 nM) and greater than 45.8 µM (ICRF193 200 nM).
As to `CCCCCC/C=C\CCCCCCCC(=O)O` [9(Z)-Hexadecenoic acid], the IC50 cell viability reads like this: (ICRF193 0 nM) greater than 45.8 µM; (ICRF193 200 nM) greater than 45.8 µM.
As to `CCc1ccc(Cc2ccc3c(c2)[C@]2(OC3)O[C@H](CO)[C@@H](O)[C@H](O)[C@H]2O)cc1` [Tofogliflozin (hydrate)], the IC50 cell viability runs as follows: (ICRF193 0 nM) greater than 45.8 µM; (ICRF193 200 nM) greater than 45.8 µM.
